Source: article PMC8453901, “GLPG1205, a GPR84 Modulator: Safety, Pharmacokinetics, and Pharmacodynamics in Healthy Subjects” (Clinical Pharmacology in Drug Development, 2021)
“Also recorded” adds a separate entry of the source. Read-outs that look alike come from different tables or passages of the source.

Assay: Study 2 part 1: effect of aging on pharmacokinetics, 50 mg once daily for 14 days
Type: in vivo, human
Details: for Tmax / Cmax / AUC(0-t) / concentration at 24 h / AUC(0-inf) / half-life: male, human, plasma, oral, 50 mg; for AUC(0-t): read-out: AUC0–24h; for concentration at 24 h: read-out: C24h; for half-life: read-out: t1/2,λz (converted)
Method: During study 2, GLPG1205 50 mg or matching placebo was administered as capsules in the morning 30 minutes after the start of a standard breakfast. Subjects were kept in‐house from the evening of day –1 to ≈26 hours after the first dose (day 2), and from the evening of day 13 until day 15. Administration of the study drug was performed daily at the clinical pharmacology unit. Subjects returned for a follow‐up visit at day 35.
In part 1, 24 healthy male subjects were matched into 3 cohorts based on body weight: Cohort A comprised 8 subjects aged 65–74 years, inclusive; cohort B comprised 8 subjects aged ≥75 years (1:1 weight matched with cohort A subjects [± 5 kg]); and cohort C comprised 8 subjects aged 18 to 50 years, inclusive (1:1 weight matched with cohort A subjects [± 5 kg]). All cohorts received GLPG1205 50 mg once daily or matching placebo, in a 3:1 ratio, for 14 days. In the open‐label second part of study 2, 8 subjects (cohort D) aged 65 to 74 years, inclusive, were included to characterize the PK profile after a loading dose of GLPG1205 250 mg on day 1 followed by multiple doses of GLPG1205 50 mg once daily from day 2 to day 14.
In the SAD part of study 1, blood samples (2 mL) for PK assessments were obtained before dosing and at multiple time points on the day of study drug administration (before dosing and 0.5, 1, 2, 4, 6, 8, and 12 hours after dosing) and at 24, 48, and 72 hours after dosing. The predose sample for the next dose level was also used in PK analysis (168 hours after dosing). […] In the MAD part of study 1, blood samples (2 mL) were obtained on days 1, 2, 4, 5, 6, 8, 10, 12, 14, 15, 16, 17, and 18 and at follow‐up (approximately 7 to 10 days after the last dose). These PK blood samples were taken after dosing (1, 2, 4, 6, 8, 12, and 24 hours) on day 1; before dosing on days 4, 6, 8, and 10; and after dosing (1, 2, 4, 6, 8, 12, 24, 72, and 96 hours) on day 14. The following additional PK blood samples were also taken: cohort C, before dosing on day 5; and cohorts D and E, before dosing on day 12. Urine samples were obtained from fractions collected over 6‐ or 12‐hour periods after dosing on days –1, 1, 2, 13, 14, and 15; samples obtained on days –1 and 13 were for cytochrome P450 (CYP) induction analysis only. In study 2, blood samples (2 mL) were obtained on days 1, 2, 5, 7, 10, 14, 15, 17, and 20 and at follow‐up (approximately 21 days after end of study medication administration). Blood samples were taken before dosing and at 1, 2, 4, 6, 8, 12, and 24 hours after drug administration on days 1 and 14 and before dosing on other sampling days.
GLPG1205 plasma concentrations were determined using a validated liquid chromatography with tandem mass spectrometry method. After a protein precipitation with methanol, a chromatographic separation was performed on a Kinetex C18 column (50×3.0 mm, 2.6 μm; Phenomenex, Torrance, California) set at 40°C by using a Nexera high‐performance liquid chromatography (HPLC) system (Shimadzu, Kyoto, Japan) or an Infinity HPLC system (Agilent Technologies, Diegem, Belgium) in isocratic elution mode. A QTRAP6500, QTRAP4000, or API4000 mass spectrometer (AB Sciex, Nieuwerkerk aan den Ijssel, The Netherlands) equipped with a TurboIonSpray probe operated in the multiple reaction monitoring in positive mode was used for quantification. The calibration curves in plasma were linear over the range of 1 to 1000 ng/mL with 1/x^2 as weighting factor. The limit of quantification of the assay in the plasma samples was set at 1 ng/mL.
PK calculations were performed using Phoenix WinNonlin 6.2 (Pharsight Corporation, Palo Alto, California). […] AUC0‐inf was calculated from the area under the plasma concentration‐time curve from time 0 until the time corresponding with the last observed quantifiable concentration + Ct/λz, where Ct was the last observed quantifiable concentration and λz the first‐order terminal rate constant. […]

[1] = 50 mg once daily, cohort A 65-74 y, day 14, mean (CV%), N = 4
[2] = 50 mg once daily, cohort A 65-74 y, day 1, mean (CV%)
[3] = 50 mg once daily, cohort A 65-74 y, day 14, mean (CV%)
[4] = 50 mg once daily, cohort B ≥75 y, day 1, mean (CV%)
[5] = 50 mg once daily, cohort B ≥75 y, day 14, mean (CV%)
[6] = 50 mg once daily, cohort C 18-50 y, day 1, mean (CV%)
[7] = 50 mg once daily, cohort C 18-50 y, day 14, mean (CV%)

Structure (SMILES): O=c1nc(OC[C@@H]2COCCO2)cc2n1CCc1cc(C#CC3CC3)ccc1-2 [GLPG1205, 9‐cyclopropylethynyl‐2‐((S)‐1‐[1,4]dioxan‐2‐ylmethoxy)‐6,7‐dihydropyrimido[6,1‐a]isoquinolin‐4‐one]
- effect of age on GLPG1205 exposure (50 mg once daily for 14 days, 3 age groups): Age did not affect GLPG1205 exposure; also recorded: age has no effect on GLPG1205 exposure; also recorded: Age had no effect on the PK
- Rac (accumulation ratio) (50 mg once daily, cohort A 65-74 y, AUC0-24h day 14/day 1 (Table 5A)): 6.16 (0.74)
- AUC0–inf [1]: 338 (26.0) ^N = 4 μg • h/mL
- Rac (accumulation ratio) (50 mg once daily, cohort B ≥75 y, AUC0-24h day 14/day 1): 5.77 (1.34)
- Rac (accumulation ratio) (50 mg once daily, cohort C 18-50 y, AUC0-24h day 14/day 1): 5.02 (1.66)
- Tmax (50 mg once daily for 14 days, all 3 age groups): 2 to 3 h
- Cmax [2]: 557 ng/mL
- AUC(0-t) [2]: 8920 ng·h/mL
- concentration at 24 h [2]: 334 ng/mL
- Cmax [3]: 2750 ng/mL
- AUC(0-inf) [1]: 338000 ng·h/mL
- AUC(0-t) [3]: 54200 ng·h/mL
- concentration at 24 h [3]: 2440 ng/mL
- half-life [3]: 71.9 h
- Cmax [4]: 440 ng/mL
- AUC(0-t) [4]: 6900 ng·h/mL
- concentration at 24 h [4]: 290 ng/mL
- Cmax [5]: 1960 ng/mL
- AUC(0-inf) (50 mg once daily, cohort B ≥75 y, day 14, mean (CV%), N = 4): 236000 ng·h/mL
- AUC(0-t) [5]: 39300 ng·h/mL
- concentration at 24 h [5]: 1820 ng/mL
- half-life [5]: 64.5 h
- Tmax (50 mg once daily, cohort B ≥75 y, day 14, median (minimum-maximum)): 3 h
- Cmax [6]: 476 ng/mL
- AUC(0-t) [6]: 7740 ng·h/mL
- concentration at 24 h [6]: 301 ng/mL
- Cmax [7]: 1950 ng/mL
- AUC(0-inf) (50 mg once daily, cohort C 18-50 y, day 14, mean (CV%), N = 5): 194000 ng·h/mL
- AUC(0-t) [7]: 37700 ng·h/mL
- concentration at 24 h [7]: 1590 ng/mL
- half-life [7]: 56 h
